Source: US11944604B1, “Nanoformulation of spriooxindole and methods for treating hepatocellular carcinoma” (KING SAUD UNIVERSITY, priority 2023, dated 2024)
Read-outs that look alike come from different tables or passages of the source.

Key:
p53 = assay: Immunohistochemistry of p53 in liver sections of CCl4-treated mice; type: in vivo
Description: (§1) Twenty five mice were treated with carbon tetrachloride (CCl4, from LOBA Chemie Pvt Ltd, Mumbai, India, 1:5 in corn oil) twice weekly via IP injection for 24 weeks. After that period of time, mice were distributed evenly into 5 groups of 5 mice. Group 1 was treated with the solvent 10% DMSO; group 2 was treated with a low dose of compound 4d (50 mg/kg/daily) for 14 days; group 3 was treated with a high dose of compound 4d (200 mg/kg) for 6 hours; group 4 was treated with a high dose of compound 4d (200 mg/kg) for 24 hours; and group 5 was treated with a high dose of compound 4d (200 mg/kg) for 48 hours.
(§2) The sections were de-paraffinized in xylene, then rehydrated. Endogenous tissue peroxidase was blocked by incubating the slides for 5 minutes in 0.3% hydrogen peroxide. Antigen retrieval was done by heating the sections in citrate buffer, at pH 6.0, in a microwave. Then, the sections were incubated with monoclonal mouse p53 (clone DO-7, Dako, USA), rabbit polyclonal caspase 3 antibody (CPP32) Ab-4 (ThermoScientific), or with monoclonal mouse Ki-67 antigen (clone MIB-1, Dako, USA).
(§3) The slides were counterstained with hematoxylin and then dehydrated in alcohol and cleared xylene. The immunohistochemical and pathological changes were examined by light microscopy (binocular, Olympus). Images were taken using a digital camera (Canon, 5 mega pixels, at 3.2× optical zoom). […]

caspase 3 = assay: Immunohistochemistry of caspase 3 in liver sections of CCl4-treated mice; type: in vivo; settings: low dose daily for 14 days or high dose for 48 hours
Description: as §1, §2, §3

HCT-116 = assay: Anticancer potency and ligand efficiency scores, HCT-116; type: cell-based; settings: Homo sapiens
Excerpt: (§4) LE is used to measure the efficiency of compounds and determine binding affinity (in terms of binding energy or pIC50) in relation to the number of heavy atoms in a molecule. This provides a way to compare the affinity of molecules corrected for their size.
(§5) LE represents the ratio of the affinity of a ligand divided by the number of heavy (non-hydrogen) atoms in the molecule (LE=ΔG/[number of heavy atoms. LE can be calculated according to the following equation: LE=(plC50×1.37)/NHA • where: • IC50=half-maximal inhibitory concentration (in term of molar concentration). • NHA=non-hydrogen atom. The recommended LE value for lead-likeness should be in the range of 0.3. The acceptable LE value for drug-likeness should be higher than 0.3.
(§6) LLE can be calculated as follows: LLE=pIC50−C log P

HepG2 = assay: Anticancer potency and ligand efficiency scores, HepG2; type: cell-based; settings: Homo sapiens
Excerpt: as §4, §5, §6

[1] = tested on: colon, liver and prostate cancer; settings: anticancer activity against colon; cited from earlier work
[2] = tested on: CCl4-induced liver cancer; assay: CCl4-induced liver cancer model: serum liver/kidney markers and H&E histopathology; type: in vivo, mice; set-up: GPT (ALT) / Creatinine / GOT (AST): unit not given here; settings: for Creatinine / GOT (AST) / GPT (ALT): serum, mean ± SD; for mitotic activity of liver cells (H&E): CCl4-treated mice
Description: (§7) An in vivo study was carried out in Male Balb/c mice, each weighing 15-25 g. All mice were purchased from Medical Experimental Research Center (MERC), Mansoura University, Egypt. Mice were acclimatized for one week in the new animal care facility, at the Zoology Department, Mansoura University, Egypt, under specific pathogen-free (SPF) conditions, and provided with conventional food and drinking water before the study. All animal experiments were carried out following the guidelines of the faculty of Science, Mansoura University, Egypt.
as §1
At the end of each treatment, all mice were sacrificed, and blood and liver were collected for evaluation. The liver samples were washed in ice cold 1× phosphate buffered saline (PBS), and fixed in 10% buffered formalin till examination.
(§8) The blood was centrifuged to collect serum or plasma for biochemical analysis. The blood chemistry was evaluated to detect the level of serum alanine aminotransferase (ALT), serum aspartate aminotransferase (liver function test), and serum creatinine (kidney function test). Complete blood count analysis was carried out to detect the effect of compound 4d treatment on blood platelet count, because it has been reported that p53-MDM2 inhibitors cause high grade thrombocytopenia (i.e., decreased numbers of platelets).
(§9) The formalin-fixed liver specimens were embedded in paraffin, and sections were taken and prepared for hematoxylin and Eosin (H&E) staining. The slides were examined for hepatic architecture, degenerative changes, inflammatory changes, hepatocytes necrosis, mitosis, dysplastic changes and malignant transformation. 4 μm thick sections were prepared on coated slides.
An in vivo model was carried out to test the efficacy of compound 4d in treatment of liver cancer by applying two regimens of compound 4d: a single dose of 200 mg/kg and the treated mice were sacrificed after 6, 24 or 48 hours; or a daily dose of 50 mg/kg for 14 days. Liver cancer was induced chemically by CCl4 (1:5 dilution in corn oil, twice per week). […] The liver architecture was disturbed and there were cirrhotic nodules with bridging fibrosis (FIG. 3A).

Male Balb/c mice = assay: Safety / tolerated dose study of compound 4d in healthy mice (blood count, blood chemistry, histopathology); type: in vivo; settings: for Creatinine / GOT / GPT / Hb / Leukocytes / Platelets: mean ± SD
Description: as §7
The lethal dose of compound 4d was evaluated according to standard Dose-Probing Tests. Mice were divided into groups of three for evaluating the LD50. Each group received either a different concentration of compound 4d (ranging from 10 ng/Kg to 200 mg/Kg), in corn oil, or the solvent 10% DMSO in corn oil, by intraperitoneal (IP) injection.
The weight and physical symptoms of the mice were monitored for 14 days. After that, all groups were sacrificed, and the liver, kidney, heart, and spleen were collected for histological evaluation of the toxicity of compound 4d. Blood was collected from each mouse for evaluation of the effect of compound 4d on liver and kidney function.
as §8, §9
In order to evaluate the tolerated dose of compound 4d, mice were intraperitoneally injected with different doses, and physical symptoms were evaluated daily for 14 days. The maximum dose used was 200 mg/kg, because of the solubility limitation in DMSO. DMSO was adjusted to the tolerated dose 10% in corn oil.

PC-3 = assay: Anticancer potency and ligand efficiency scores, PC-3; type: cell-based; settings: Homo sapiens
Excerpt: as §4, §5, §6

colon cancer cells = settings: cited from earlier work
Ki-67 = assay: Immunohistochemistry of Ki-67 in hepatocytes of CCl4-treated mice; type: in vivo; settings: low (daily dose for 14 days) or high dose (single dose)
Description: as §1
The sections were de-paraffinized in xylene, then rehydrated. Endogenous tissue peroxidase was blocked by incubating the slides for 5 minutes in 0.3% hydrogen peroxide. Antigen retrieval was done by heating the sections in citrate buffer, at pH 6.0, in a microwave. […]
The statistical analysis was done using the software SPSS 19 for Microsoft Windows (SPSS Inc, Chicago, Illinois). A quantitative analysis of the number of hepatocytes with positive nuclear Ki-67 staining were tested using a one-way analysis of variance (ANOVA), with Duncan's multiple comparisons of the means to compare difference between means.
The level of proliferative Ki-67 marker was evaluated using immunohistochemistry. […]

[3] = Lipophilicity (log K as surrogate for log P); type: physicochemical
Description: An LLE value≥3 for a lead compound is acceptable, and for a drug candidate LLE value ≥5 is recommended. To get more accurate results, log P was calculated practically, and Log K was measured as indicator and surrogate for log p.

[4] = healthy mice, IP, 50 mg/kg/14 d
[5] = healthy mice, IP, 200 mg/kg/24 hrs
[6] = healthy mice, IP, 200 mg/kg/48 hrs

O=C(/C=C/c1ccc(Cl)cc1Cl)[C@H]1[C@H](c2ccc(Cl)cc2Cl)[C@H]2CSCN2[C@]12C(=O)Nc1ccccc12 [Compound 4d, (3R,6′S,7′R,7a′S)-7′-(2,4-dichlorophenyl)-6′-((E)-3-(2,4-dichlorophenyl)acryloyl)-1′,6′,7′,7a′-tetrahydro-3′H-spiro[indoline-3,5′-pyrrolo[1,2-c]thiazol]-2-one]
level of p53 in liver sections (p53; daily dose of 50 mg/kg for 14 days, versus mice only treated with CCl4): higher levels of detected p53
activation of p53 in liver sections (p53; single dose of 200 mg/kg for 6, 24 or 48 hours): time-dependent activation of p53
level of caspase 3 in liver sections (caspase 3): induced the activation of caspase 3
IC50 (HCT-116; read-out: HCT-116 (unnamed value under the cell line head)): 2 µM
IC50 (HCT-116; read-out: pIC50 (converted)): 2.04 µM
IC50 (HepG2; read-out: HepG2 (unnamed value under the cell line head)): 0.85 µM
IC50 (HepG2; read-out: IC50 (converted)): 0.851 µM
selectivity index [1]: greater than 2
Creatinine ([2]; CCl4 + 50 mg/kg/14 d): 0.4120 ± 0.2
GOT (AST) ([2]; CCl4 + 50 mg/kg/14 d): 449.20 ± 109.2
GPT (ALT) ([2]; CCl4 + 50 mg/kg/14 d): 2028.6 ± 168
Creatinine ([2]; CCl4 + 200 mg/kg/6 hrs): 0.4560 ± 0.1823
GOT (AST) ([2]; CCl4 + 200 mg/kg/6 hrs): 3419.00 ± 130.5
GPT (ALT) ([2]; CCl4 + 200 mg/kg/6 hrs): 3430.4 ± 137.48
Creatinine ([2]; CCl4 + 200 mg/kg/24 hrs): 0.4860 ± 0.17
GOT (AST) ([2]; CCl4 + 200 mg/kg/24 hrs): 1161.00 ± 108.5
GPT (ALT) ([2]; CCl4 + 200 mg/kg/24 hrs): 2209.0 ± 132.8
Creatinine ([2]; CCl4 + 200 mg/kg/48 hrs): 0.4660 ± 0.16
GOT (AST) ([2]; CCl4 + 200 mg/kg/48 hrs): 208.40 ± 9.32
GPT (ALT) ([2]; CCl4 + 200 mg/kg/48 hrs): 961.6 ± 15.96
mitotic activity of liver cells (H&E) ([2]; daily dose of 50 mg/kg for 14 days): no mitotic activity
mitotic activity of liver cells (H&E) ([2]; single dose of 200 mg/kg, after 6 hours): 1 /10 H.P.F.
mitotic activity of liver cells (H&E) ([2]; single dose of 200 mg/kg, longer incubation (24 hours)): 1 /10 H.P.F.
mitotic activity of liver cells (H&E) ([2]; single dose of 200 mg/kg, two days (48 hours)): 2 /10 H.P.F.
change in the behavior, feeding or drinking of the mice (Male Balb/c mice; IP, doses up to 200 mg/kg, observed daily for 14 days): did not cause any change
Creatinine (Male Balb/c mice; [4]): 0.49 ± 0.21
GOT (Male Balb/c mice; [4]): 281.0 ± 231.9
GPT (Male Balb/c mice; [4]): 486.6 ± 339.9
Hb (Male Balb/c mice; [4]): 10.16 ± 1.1
Leukocytes (Male Balb/c mice; [4]): 12.5 ± 6.9
Platelets (Male Balb/c mice; [4]): 433.0 ± 304.6
Creatinine (Male Balb/c mice; [5]): 0.67 ± 0.24
GOT (Male Balb/c mice; [5]): 129.6 ± 56.5
GPT (Male Balb/c mice; [5]): 498.0 ± 228.8
Hb (Male Balb/c mice; [5]): 10.1 ± 1.43
Leukocytes (Male Balb/c mice; [5]): 10.6 ± 6.9
Platelets (Male Balb/c mice; [5]): 519 ± 302.9
Creatinine (Male Balb/c mice; [6]): 0.692 ± 0.567
GOT (Male Balb/c mice; [6]): 145.7 ± 198.9
GPT (Male Balb/c mice; [6]): 368.0 ± 208.1
Hb (Male Balb/c mice; [6]): 10.4 ± 1.78
Leukocytes (Male Balb/c mice; [6]): 13.6 ± 6.4
Platelets (Male Balb/c mice; [6]): 407.0 ± 281.6
pathological alteration in kidney, heart or spleen (Male Balb/c mice; healthy mice, histopathology): did not cause any pathological alteration
platelet count (complete blood count) (Male Balb/c mice; healthy mice, in words): no aberrant or significant change
liver architecture, hematoxylin and eosin staining (Male Balb/c mice; healthy mice, treatment for 14 days): normal liver architecture without any degenerative changes
IC50 (PC-3; read-out: PC-3 (unnamed value under the cell line head)): 1.8 µM
IC50 (PC-3; read-out: pIC50 (converted)): 1.82 µM
apoptosis (Bcl-2 inhibition, Bax activation) (colon cancer cells): induction of apoptosis
colony formation and wound healing (colon cancer cells; treated colon cancer cells): inhibited colony formation, and wound healing
p21 gene expression (colon cancer cells; treated colon cancer cells): overexpression of cell cycle inhibitor p21 gene
p53 activation (colon cancer cells; treated colon cancer cells): activation of p53
number of Ki-67 nuclear stained hepatocytes (Ki-67): significantly increased
log K [3]: 1.19
